Test results as given in the NIST ThermoML archive (doi:10.1016/j.fluid.2018.04.024).
± gives the expanded uncertainty stated by the source.

Conditions: Liquid, Vibrating tube method

Question: With `CCCC(=O)OC` [methyl butanoate] as the compound, how does the mass density (293.15 K, 100 kPa) read?
Answer: 898.42 ± 0.92 kg/m3

Question: What about the mass density (293.15 K, 1000 kPa) of the same compound?
Answer: 898.68 ± 0.92 kg/m3

Question: And the mass density (293.15 K, 3000 kPa)?
Answer: 900.65 ± 0.93 kg/m3

Question: And the mass density (293.15 K, 5000 kPa)?
Answer: 902.15 ± 0.93 kg/m3

Question: And the mass density (293.15 K, 10000 kPa)?
Answer: 906.55 ± 0.94 kg/m3

Question: What about the mass density (293.15 K, 15000 kPa) of the same compound?
Answer: 910.63 ± 0.95 kg/m3

Question: What about the mass density (293.15 K, 20000 kPa) of the same compound?
Answer: 914.51 ± 0.95 kg/m3

Question: And the mass density (293.15 K, 25000 kPa)?
Answer: 918.33 ± 0.96 kg/m3

Question: What about the mass density (293.15 K, 30000 kPa) of the same compound?
Answer: 921.95 ± 0.97 kg/m3

Question: What about the mass density (293.15 K, 35000 kPa) of the same compound?
Answer: 925.38 ± 0.97 kg/m3

Question: And the mass density (293.15 K, 40000 kPa)?
Answer: 928.67 ± 0.98 kg/m3

Question: What about the mass density (293.15 K, 50000 kPa) of the same compound?
Answer: 935.38 ± 0.99 kg/m3

Question: And the mass density (293.15 K, 60000 kPa)?
Answer: 941.12 ± 1 kg/m3

Question: What about the mass density (303.15 K, 100 kPa) of the same compound?
Answer: 886.68 ± 0.91 kg/m3

Question: And the mass density (303.15 K, 1000 kPa)?
Answer: 887.75 ± 0.91 kg/m3

Question: And the mass density (303.15 K, 3000 kPa)?
Answer: 889.67 ± 0.92 kg/m3

Question: And the mass density (303.15 K, 5000 kPa)?
Answer: 891.54 ± 0.92 kg/m3

Question: What about the mass density (303.15 K, 10000 kPa) of the same compound?
Answer: 895.99 ± 0.93 kg/m3

Question: And the mass density (303.15 K, 15000 kPa)?
Answer: 900.35 ± 0.94 kg/m3

Question: What about the mass density (303.15 K, 20000 kPa) of the same compound?
Answer: 904.45 ± 0.95 kg/m3

Question: And the mass density (303.15 K, 25000 kPa)?
Answer: 908.4 ± 1 kg/m3

Question: What about the mass density (303.15 K, 30000 kPa) of the same compound?
Answer: 912.18 ± 0.96 kg/m3

Question: And the mass density (303.15 K, 35000 kPa)?
Answer: 915.86 ± 0.97 kg/m3

Question: And the mass density (303.15 K, 40000 kPa)?
Answer: 919.34 ± 0.98 kg/m3

Question: What about the mass density (303.15 K, 50000 kPa) of the same compound?
Answer: 926.18 ± 0.99 kg/m3

Question: What about the mass density (303.15 K, 60000 kPa) of the same compound?
Answer: 932.54 ± 1 kg/m3

Question: And the mass density (313.15 K, 100 kPa)?
Answer: 875.83 ± 0.9 kg/m3

Question: What about the mass density (313.15 K, 1000 kPa) of the same compound?
Answer: 876.3 ± 0.9 kg/m3

Question: And the mass density (313.15 K, 3000 kPa)?
Answer: 878.42 ± 0.91 kg/m3

Question: What about the mass density (313.15 K, 5000 kPa) of the same compound?
Answer: 880.45 ± 0.91 kg/m3

Question: And the mass density (313.15 K, 10000 kPa)?
Answer: 885.34 ± 0.92 kg/m3

Question: And the mass density (313.15 K, 15000 kPa)?
Answer: 889.92 ± 0.93 kg/m3

Question: What about the mass density (313.15 K, 20000 kPa) of the same compound?
Answer: 894.25 ± 0.94 kg/m3

Question: What about the mass density (313.15 K, 25000 kPa) of the same compound?
Answer: 898.53 ± 0.95 kg/m3

Question: What about the mass density (313.15 K, 30000 kPa) of the same compound?
Answer: 902.47 ± 0.96 kg/m3

Question: What about the mass density (313.15 K, 35000 kPa) of the same compound?
Answer: 906.46 ± 0.96 kg/m3

Question: What about the mass density (313.15 K, 40000 kPa) of the same compound?
Answer: 910.02 ± 0.97 kg/m3

Question: What about the mass density (313.15 K, 50000 kPa) of the same compound?
Answer: 917.24 ± 0.98 kg/m3

Question: And the mass density (313.15 K, 60000 kPa)?
Answer: 923.73 ± 1 kg/m3

Question: What about the mass density (323.15 K, 100 kPa) of the same compound?
Answer: 864.35 ± 0.89 kg/m3

Question: What about the mass density (323.15 K, 1000 kPa) of the same compound?
Answer: 865.42 ± 0.89 kg/m3

Question: And the mass density (323.15 K, 3000 kPa)?
Answer: 867.62 ± 0.9 kg/m3

Question: What about the mass density (323.15 K, 5000 kPa) of the same compound?
Answer: 869.76 ± 0.9 kg/m3

Question: And the mass density (323.15 K, 10000 kPa)?
Answer: 875.02 ± 0.91 kg/m3

Question: What about the mass density (323.15 K, 15000 kPa) of the same compound?
Answer: 879.93 ± 0.92 kg/m3

Question: What about the mass density (323.15 K, 20000 kPa) of the same compound?
Answer: 884.63 ± 0.93 kg/m3

Question: What about the mass density (323.15 K, 25000 kPa) of the same compound?
Answer: 888.92 ± 0.94 kg/m3

Question: What about the mass density (323.15 K, 30000 kPa) of the same compound?
Answer: 893.19 ± 0.95 kg/m3

Question: And the mass density (323.15 K, 35000 kPa)?
Answer: 897.21 ± 0.96 kg/m3

Question: What about the mass density (323.15 K, 40000 kPa) of the same compound?
Answer: 901.15 ± 0.97 kg/m3

Question: And the mass density (323.15 K, 50000 kPa)?
Answer: 908.62 ± 0.98 kg/m3

Question: And the mass density (323.15 K, 60000 kPa)?
Answer: 915.65 ± 1 kg/m3

Question: What about the mass density (333.15 K, 100 kPa) of the same compound?
Answer: 853.11 ± 0.88 kg/m3

Question: And the mass density (333.15 K, 1000 kPa)?
Answer: 854.08 ± 0.88 kg/m3

Question: And the mass density (333.15 K, 3000 kPa)?
Answer: 856.55 ± 0.89 kg/m3

Question: What about the mass density (333.15 K, 5000 kPa) of the same compound?
Answer: 858.82 ± 0.89 kg/m3

Question: And the mass density (333.15 K, 10000 kPa)?
Answer: 864.28 ± 0.9 kg/m3

Question: What about the mass density (333.15 K, 15000 kPa) of the same compound?
Answer: 869.44 ± 0.91 kg/m3

Question: And the mass density (333.15 K, 20000 kPa)?
Answer: 874.46 ± 0.93 kg/m3

Question: And the mass density (333.15 K, 25000 kPa)?
Answer: 879.2 ± 0.9 kg/m3

Question: And the mass density (333.15 K, 30000 kPa)?
Answer: 883.56 ± 0.95 kg/m3

Question: And the mass density (333.15 K, 35000 kPa)?
Answer: 887.79 ± 0.95 kg/m3

Question: What about the mass density (333.15 K, 40000 kPa) of the same compound?
Answer: 892.1 ± 0.96 kg/m3

Question: What about the mass density (333.15 K, 50000 kPa) of the same compound?
Answer: 899.8 ± 0.98 kg/m3

Question: What about the mass density (333.15 K, 60000 kPa) of the same compound?
Answer: 906.96 ± 0.99 kg/m3

Question: What about the mass density (343.15 K, 100 kPa) of the same compound?
Answer: 841.05 ± 0.87 kg/m3

Question: What about the mass density (343.15 K, 1000 kPa) of the same compound?
Answer: 842.4 ± 0.9 kg/m3

Question: What about the mass density (343.15 K, 3000 kPa) of the same compound?
Answer: 844.95 ± 0.88 kg/m3

Question: And the mass density (343.15 K, 5000 kPa)?
Answer: 847.57 ± 0.88 kg/m3

Question: What about the mass density (343.15 K, 10000 kPa) of the same compound?
Answer: 853.35 ± 0.89 kg/m3

Question: What about the mass density (343.15 K, 15000 kPa) of the same compound?
Answer: 858.9 ± 0.9 kg/m3

Question: And the mass density (343.15 K, 20000 kPa)?
Answer: 864.31 ± 0.92 kg/m3

Question: And the mass density (343.15 K, 25000 kPa)?
Answer: 869.1 ± 0.9 kg/m3

Question: And the mass density (343.15 K, 30000 kPa)?
Answer: 873.89 ± 0.94 kg/m3

Question: What about the mass density (343.15 K, 35000 kPa) of the same compound?
Answer: 878.44 ± 0.95 kg/m3

Question: What about the mass density (343.15 K, 40000 kPa) of the same compound?
Answer: 882.65 ± 0.96 kg/m3

Question: What about the mass density (343.15 K, 50000 kPa) of the same compound?
Answer: 890.89 ± 0.98 kg/m3

Question: What about the mass density (343.15 K, 60000 kPa) of the same compound?
Answer: 898.16 ± 0.99 kg/m3

Question: What about the mass density (353.15 K, 100 kPa) of the same compound?
Answer: 829.58 ± 0.86 kg/m3

Question: What about the mass density (353.15 K, 1000 kPa) of the same compound?
Answer: 830.8 ± 0.9 kg/m3

Question: What about the mass density (353.15 K, 3000 kPa) of the same compound?
Answer: 833.71 ± 0.87 kg/m3

Question: What about the mass density (353.15 K, 5000 kPa) of the same compound?
Answer: 836.31 ± 0.87 kg/m3

Question: And the mass density (353.15 K, 10000 kPa)?
Answer: 842.65 ± 0.89 kg/m3

Question: And the mass density (353.15 K, 15000 kPa)?
Answer: 848.71 ± 0.9 kg/m3

Question: What about the mass density (353.15 K, 20000 kPa) of the same compound?
Answer: 854.19 ± 0.91 kg/m3

Question: What about the mass density (353.15 K, 25000 kPa) of the same compound?
Answer: 859.51 ± 0.92 kg/m3

Question: What about the mass density (353.15 K, 30000 kPa) of the same compound?
Answer: 864.51 ± 0.94 kg/m3

Question: What about the mass density (353.15 K, 35000 kPa) of the same compound?
Answer: 869.35 ± 0.95 kg/m3

Question: What about the mass density (353.15 K, 40000 kPa) of the same compound?
Answer: 873.76 ± 0.96 kg/m3

Question: What about the mass density (353.15 K, 50000 kPa) of the same compound?
Answer: 882.24 ± 0.98 kg/m3

Question: And the mass density (353.15 K, 60000 kPa)?
Answer: 890.18 ± 1 kg/m3

Question: What about the mass density (363.15 K, 100 kPa) of the same compound?
Answer: 817.31 ± 0.85 kg/m3

Question: What about the mass density (363.15 K, 1000 kPa) of the same compound?
Answer: 818.87 ± 0.85 kg/m3

Question: And the mass density (363.15 K, 3000 kPa)?
Answer: 821.94 ± 0.86 kg/m3

Question: And the mass density (363.15 K, 5000 kPa)?
Answer: 824.91 ± 0.86 kg/m3

Question: And the mass density (363.15 K, 10000 kPa)?
Answer: 831.48 ± 0.88 kg/m3

Question: What about the mass density (363.15 K, 15000 kPa) of the same compound?
Answer: 838.19 ± 0.89 kg/m3

Question: What about the mass density (363.15 K, 20000 kPa) of the same compound?
Answer: 843.84 ± 0.91 kg/m3

Question: What about the mass density (363.15 K, 25000 kPa) of the same compound?
Answer: 849.26 ± 0.92 kg/m3

Question: What about the mass density (363.15 K, 30000 kPa) of the same compound?
Answer: 854.68 ± 0.93 kg/m3

Question: And the mass density (363.15 K, 35000 kPa)?
Answer: 859.76 ± 0.94 kg/m3

Question: And the mass density (363.15 K, 40000 kPa)?
Answer: 864.61 ± 0.95 kg/m3

Question: What about the mass density (363.15 K, 50000 kPa) of the same compound?
Answer: 873.56 ± 0.98 kg/m3

Question: What about the mass density (363.15 K, 60000 kPa) of the same compound?
Answer: 881.85 ± 1 kg/m3
